# Measured values from patent publication US20230085307A1, “PYRIDAZINONE COMPOUND AND HERBICIDE” (NISSAN CHEMICAL CORPORATION, priority 2019, published 2023).
# Tests used:
# oval-leafed pondweed = experiment: Test Example 1: herbicidal activity, application before weed generation under submerged conditions (Table 16, symbol C); assay type: in vivo, oval-leafed pondweed (Monochoria vaginalis); settings: 320 g/ha applied herbicide
# In short: (§1)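 Alluvial soil was flooded to 4 cm depth, weed seeds were sown mixed and 2.5-leaf rice seedlings were transplanted. On sowing day, the compound's emulsion, diluted in water to a set dose, was applied to the water surface. Plants grew at 25–30 °C and were scored 0–5 after three weeks.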
# Japanese bulrush = experiment: Test Example 1: herbicidal activity, application before weed generation under submerged conditions (Table 16, symbol B); assay type: in vivo, Japanese bulrush (Schoenoplectus juncoides); settings: 320 g/ha applied herbicide
# In short: as §1
# chickweed = experiment: Test Example 5: herbicidal effect by foliage application, plastic box (Table 20, symbol P); assay type: in vivo, common chickweed (Stellaria media); settings: foliage application, three weeks after application
# In short: (§2)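 Foliar spray test: emulsion formulation diluted in water to a set application rate, sprayed onto 14-day-old plants raised in diluvial soil at 25° C to 30° C under glass. Both herbicidal effect and crop effect rated visually three weeks later.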
# Chinese sprangletop = experiment: Test Example 3: herbicidal effect by foliage application, Wagner pot (Table 18, symbol D); assay type: in vivo, chinese sprangletop (Leptochloa chinensis); settings: 320 g/ha
# In short: (§3)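 Plants were sown in alluvial soil held under 0.1–0.5 cm standing water and grown 14 days in a greenhouse at 25–30 °C. An emulsifiable formulation, water-diluted to the set dose, was then sprayed onto the foliage, and effects were scored three weeks later using previously defined criteria.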
# blackgrass = experiment: Test Example 5: herbicidal effect by foliage application, plastic box (Table 20, symbol J); assay type: in vivo, blackgrass (Alopecurus myosuroides); settings: foliage application, three weeks after application
# In short: as §2
# southern crabgrass = experiment: Test Example 5: herbicidal effect by foliage application, plastic box (Table 20, symbol F); assay type: in vivo, southern crabgrass (Digitaria ciliaris); settings: foliage application, three weeks after application
# In short: as §2
# green foxtail = experiment: Test Example 5: herbicidal effect by foliage application, plastic box (Table 20, symbol G); assay type: in vivo, green foxtail (Setaria viridis); settings: foliage application, three weeks after application
# In short: as §2
# rice flat sedge = experiment: Test Example 3: herbicidal effect by foliage application, Wagner pot (Table 18, symbol E); assay type: in vivo, rice flat sedge (Cyperus iria); settings: 320 g/ha
# In short: as §3
# Italian ryegrass = experiment: Test Example 5: herbicidal effect by foliage application, plastic box (Table 20, symbol K); assay type: in vivo, Italian ryegrass (Lolium multiflorum); settings: foliage application, three weeks after application
# In short: as §2
# barnyard grass [1] = experiment: Test Example 3: herbicidal effect by foliage application, Wagner pot (Table 18, symbol H); assay type: in vivo, barnyard grass (Echinochloa crus-galli); settings: 320 g/ha
# In short: as §3
# lambsquarters = experiment: Test Example 5: herbicidal effect by foliage application, plastic box (Table 20, symbol O); assay type: in vivo, lambsquarters (Chenopodium album); settings: foliage application, three weeks after application
# In short: as §2
# persian speedwell = experiment: Test Example 5: herbicidal effect by foliage application, plastic box (Table 20, symbol R); assay type: in vivo, Persian speedwell (Veronica persica); settings: foliage application, three weeks after application
# In short: as §2
# barnyard grass [2] = experiment: Test Example 5: herbicidal effect by foliage application, plastic box (Table 20, symbol H); assay type: in vivo, barnyard grass (Echinochloa crus-galli); settings: foliage application, three weeks after application
# In short: as §2
# wild oat = experiment: Test Example 5: herbicidal effect by foliage application, plastic box (Table 20, symbol I); assay type: in vivo, wild oat (Avena fatua); settings: foliage application, three weeks after application
# In short: as §2
# windgrass = experiment: Test Example 5: herbicidal effect by foliage application, plastic box (Table 20, symbol L); assay type: in vivo, windgrass (Apera spica-venti); settings: foliage application, three weeks after application
# In short: as §2
# velvetleaf = experiment: Test Example 5: herbicidal effect by foliage application, plastic box (Table 20, symbol M); assay type: in vivo, velvetleaf (Abutilon theophrasti); settings: foliage application, three weeks after application
# In short: as §2
# false cleavers = experiment: Test Example 5: herbicidal effect by foliage application, plastic box (Table 20, symbol Q); assay type: in vivo, false cleavers (Galium spurium); settings: foliage application, three weeks after application
# In short: as §2
# late watergrass = experiment: Test Example 1: herbicidal activity, application before weed generation under submerged conditions (Table 16, symbol A); assay type: in vivo, late watergrass (Echinochloa oryzicola); settings: 320 g/ha applied herbicide
# In short: as §1
# redroot pigweed = experiment: Test Example 5: herbicidal effect by foliage application, plastic box (Table 20, symbol N); assay type: in vivo, redroot pigweed (Amaranthus retroflexus); settings: foliage application, AAH 320 g/ha, three weeks after application
# In short: as §2
smiles,measurement,setting,value
COc1ccc(-c2sc3ccccc3c2-c2c(O)c(C)nn(C)c2=O)c(OC)c1 [1-070],Herbicidal effect on C: oval-leafed pondweed (grade 0-5),oval-leafed pondweed,1 (Herbicidal rate of 5% or more and less than 20%)
same,Herbicidal effect on B: Japanese bulrush (grade 0-5),Japanese bulrush,3 (Herbicidal rate of 40% or more and less than 70%)
same,"herbicidal effect grade, P: chickweed",chickweed; 320 g/ha,5 (Herbicidal rate of 90% or more (almost completely withered))
same,"herbicidal effect on D (Chinese sprangletop), rating 0-5",Chinese sprangletop,0 (Herbicidal rate of 5% or less (almost no effect))
same,"herbicidal effect grade, J: blackgrass",blackgrass; 320 g/ha,0 (Herbicidal rate of 5% or less (almost no effect))
same,"herbicidal effect grade, F: southern crabgrass",southern crabgrass; 320 g/ha,3 (Herbicidal rate of 40% or more and less than 70%)
same,"herbicidal effect grade, G: green foxtail",green foxtail; 320 g/ha,3 (Herbicidal rate of 40% or more and less than 70%)
same,"herbicidal effect on E (rice flat sedge), rating 0-5",rice flat sedge,3 (Herbicidal rate of 40% or more and less than 70%)
same,"herbicidal effect grade, K: Italian ryegrass",Italian ryegrass; 320 g/ha,1 (Herbicidal rate of 5% or more and less than 20%)
same,"herbicidal effect on H (barnyard grass), rating 0-5",barnyard grass [1],1 (Herbicidal rate of 5% or more and less than 20%)
same,"herbicidal effect grade, O: lambsquarters",lambsquarters; 320 g/ha,0 (Herbicidal rate of 5% or less (almost no effect))
same,"herbicidal effect grade, R: persian speedwell",persian speedwell; 320 g/ha,4 (Herbicidal rate of 70% or more and less than 90%)
same,"herbicidal effect grade, H: barnyard grass",barnyard grass [2]; 320 g/ha,0 (Herbicidal rate of 5% or less (almost no effect))
same,"herbicidal effect grade, I: wild oat",wild oat; 320 g/ha,1 (Herbicidal rate of 5% or more and less than 20%)
same,"herbicidal effect grade, L: windgrass",windgrass; 320 g/ha,3 (Herbicidal rate of 40% or more and less than 70%)
same,"herbicidal effect grade, M: velvetleaf",velvetleaf; 320 g/ha,2 (Herbicidal rate of 20% or more and less than 40%)
same,"herbicidal effect grade, Q: false cleavers",false cleavers; 320 g/ha,2 (Herbicidal rate of 20% or more and less than 40%)
same,Herbicidal effect on A: late watergrass (grade 0-5),late watergrass,3 (Herbicidal rate of 40% or more and less than 70%)
Cc1nn(C)c(=O)c(-c2c(-c3ccccc3OCC3CC3(F)F)sc3ccccc23)c1O (stereo not shown) [1-120],Herbicidal effect on C: oval-leafed pondweed (grade 0-5),oval-leafed pondweed,0 (Herbicidal rate of 5% or less (almost no effect))
same,Herbicidal effect on B: Japanese bulrush (grade 0-5),Japanese bulrush,0 (Herbicidal rate of 5% or less (almost no effect))
same,"P: chickweed, herbicidal effect",chickweed; AAH 320 g/ha,4 (Herbicidal rate of 70% or more and less than 90%)
same,"herbicidal effect on D (Chinese sprangletop), rating 0-5",Chinese sprangletop,0 (Herbicidal rate of 5% or less (almost no effect))
same,"N: redroot pigweed, herbicidal effect",redroot pigweed,0 (Herbicidal rate of 5% or less (almost no effect))
same,"J: blackgrass, herbicidal effect",blackgrass; AAH 320 g/ha,2 (Herbicidal rate of 20% or more and less than 40%)
same,"F: southern crabgrass, herbicidal effect",southern crabgrass; AAH 320 g/ha,0 (Herbicidal rate of 5% or less (almost no effect))
same,"G: green foxtail, herbicidal effect",green foxtail; AAH 320 g/ha,0 (Herbicidal rate of 5% or less (almost no effect))
same,"herbicidal effect on E (rice flat sedge), rating 0-5",rice flat sedge,2 (Herbicidal rate of 20% or more and less than 40%)
same,"K: Italian ryegrass, herbicidal effect",Italian ryegrass; AAH 320 g/ha,0 (Herbicidal rate of 5% or less (almost no effect))
same,"herbicidal effect on H (barnyard grass), rating 0-5",barnyard grass [1],3 (Herbicidal rate of 40% or more and less than 70%)
same,"O: lambsquarters, herbicidal effect",lambsquarters; AAH 320 g/ha,0 (Herbicidal rate of 5% or less (almost no effect))
same,"R: persian speedwell, herbicidal effect",persian speedwell; AAH 320 g/ha,5 (Herbicidal rate of 90% or more (almost completely withered))
same,"H: barnyard grass, herbicidal effect",barnyard grass [2]; AAH 320 g/ha,0 (Herbicidal rate of 5% or less (almost no effect))
same,"I: wild oat, herbicidal effect",wild oat; AAH 320 g/ha,0 (Herbicidal rate of 5% or less (almost no effect))
same,"L: windgrass, herbicidal effect",windgrass; AAH 320 g/ha,0 (Herbicidal rate of 5% or less (almost no effect))
same,"M: velvetleaf, herbicidal effect",velvetleaf; AAH 320 g/ha,0 (Herbicidal rate of 5% or less (almost no effect))
same,"Q: false cleavers, herbicidal effect",false cleavers; AAH 320 g/ha,3 (Herbicidal rate of 40% or more and less than 70%)
same,Herbicidal effect on A: late watergrass (grade 0-5),late watergrass,3 (Herbicidal rate of 40% or more and less than 70%)
